Test results reported in US10676468B2, “N-(3-heteroarylaryl)-4-arylarylcarboxamides and analogs as hedgehog pathway inhibitors and use thereof” (IMPACT Therapeutics, Inc., priority 2012, dated 2020).

Tests used:
[1] = test system: Hedgehog Signaling Pathway; experiment: SAG-induced differentiation of C3H10T1/2 cells into osteoblastic cells, intracellular alkaline phosphatase activity; type: cell-based, mouse; conditions: Mus musculus, C3H 10T1/2, 120 h, 1 μM SAG, 5 days, alkaline phosphatase activity (OD405), read-out: IC50 values of compounds that inhibit Hh pathway
Description: (§1) The Application of SAG to Induce Pluripotent Mesenchymal Mouse Embryonic Cell C3H/10T1/2 to Differentiate into Osteoblastic Cells for the Determination of the Inhibitory Activity of N-(3-(1H-benzo[d]imidazol-2-yl)-4-chlorophenyl)-2-methyl-4-((2S,6R)-2,6-dimethylmorpholino)benzamide and Analogs on Hedgehog Signaling Pathway
The intracellular alkaline phosphatase activity is a reliable indication of the differentiation process. Therefore this enzymatic activity can be used to monitor the activity of hedgehog pathway inhibitors.
The C3H10T1/2 cells were grown in DMEM medium supplemented with 10% fetal bovine serum (FBS, Hyclone) at 37° C. with 5% CO2. 10000 cells were sown to each well of a 96-well microplate a day before the experiment and grown overnight. At the day of experiment, the inducing medium and inhibitor solutions were prepared as follows: the reference compound and testing compounds were serially diluted 1 to 3 and 1 to 10 in DMSO to seven concentrations with the eighth concentration being DMSO. A 10-fold dilution was prepared by mixing 10 μL of the DMSO dilution with 90 μL of fresh growing medium. […] Pre-sown cells were taken out from incubator and the medium was removed. To each well, 180 μL inducing medium was added and followed immediately with 20 μL of testing or reference compound dilutions. The testing compound concentrations are between 10 μM and 1 nM. The cells were then return to CO2 incubator to grow additional 5 days at 37° C.
(§2) After incubating for 5 days, the cells were taken out and intracellular alkaline phosphatase activity was tested. The alkaline phosphatase activity was measured as follows:
1) Preparation of Substrate Solution:
(§3) Solution A: A 0.5 mM MgCl2 (Sigma Prod. No. M-0250) solution was prepared.
(§4) After the pH value was adjusted to 9.8 with 5 M HCl at 37° C., the total volume was adjusted to 100 mL.
(§5) After it is completely dissolved the total volume was adjusted to 10 mL with the final concentration being 1 mM.
Substrate reaction medium: To 10 mL of solution B, 250 μL of solution A and 200 μL of solution C were added, and mixed well.
2) the Measurement of Intracellular Alkaline Phosphatase Activity:
(§6) After taking out the cells from the incubator, the cell culture medium was removed and cells were washed twice with PBS. 20 μL of lysis solution (0.2% Triton solution) was added to each well. After being shaken for 30 min at room temperature, each well of cells received 80 μL of substrate reaction medium. The microplate was placed immediately into a VariSkan Flashplate reader and absorbance at OD405 was read as background reading. The plate was replaced back to cell culture incubator at 37° C. for additional 30 min and the absorbance was read again using VariSkan Flash plate reader at OD405.
(§7) The data were analyzed by subtracting the background reading from the reading at 30 min, and the obtained numbers were plotted and analyzed with Prism 5 software (GraphPad). The phosphatase activity (calculated OD405) was plotted against the log concentration of testing compound, and the obtained plot was fitted with non-linear curve fitting equation to calculate IC50 values. The curve fitting equation is Y=Bottom+(Top−Bottom)/(1+10^((X−Log IC50))). X is the logarithm of concentration. Y is the measure of alkaline phosphatase activity (OD405).
(§8) The calculated IC50 value is a measurement of the inhibitory activity of compound to Hh pathway.

[2] = test system: Hedgehog Signaling Pathway; experiment: SHH-induced differentiation of C3H10T1/2 cells into osteoblastic cells, intracellular alkaline phosphatase activity; type: cell-based, mouse; conditions: Mus musculus, C3H 10T1/2, 120 h, 10 nM SHH-N, 5 days, alkaline phosphatase activity (OD405), read-out: IC50 values of compounds that inhibit Hh pathway
Procedure: as §1, with “SHH” for “SAG”, “C3H10T1/2” for “C3H/10T1/2”
The C3H10T1/2 cells were grown in DMEM medium supplemented with 10% fetal bovine serum (FBS, Hyclone) at 37° C. with 5% CO2. 10000 cells were sown to each well of a 96-well microplate a day before the experiment and grown overnight. […] The reference compound and testing compounds were serially diluted 1 to 3 and 1 to 10 in DMSO to seven concentrations with the eighth concentration being DMSO. A 10-fold dilution was prepared by mixing 10 μL of the DMSO dilutions with 90 μL of fresh growing medium. Pre-sown cells were taken out from incubator and the medium was removed. To each well, 180 μL of inducing medium containing 10 nM of SHH-N was added and followed immediately with 20 μL of 10× testing or reference compound dilutions. The testing compound concentrations are between 10 μM and 10 nM. The cells were then returned to CO2 incubator to grow additional 5 days at 37° C.
as §2
3) Preparation of Substrate Solution:
as §3, §4, §5
Substrate reaction medium: to 10 mL of solution B, 250 μL of solution A and 200 μL of solution C were added, and mixed well.
4) The Measurement of Intracellular Alkaline Phosphatase Activity:
as §6
as §7, with “Y=Bottom+(Top−Bottom)/(1+10^(X−Log IC50)).” for “Y=Bottom+(Top−Bottom)/(1+10^((X−Log IC50))).”
as §8

SMILES	IC50 [1] [nM]	IC50 [2] [nM]
Cc1cc(-c2ccc(S(C)(=O)=O)cc2)ccc1C(=O)Nc1ccc(Cl)c(-c2nc3ccccc3[nH]2)c1 [Example 5, N-(3-(1H-benzo[d]imidazol-2-yl)-4-chlorophenyl)-3-methyl-4′-(methylsulfonyl)biphenyl-4-carboxamide]	26	5.9
Cc1cc(-c2cccc(C#N)c2)ccc1C(=O)Nc1ccc(Cl)c(-c2nc3ccccc3[nH]2)c1 [Example 11, N-(3-(1H-benzo[d]imidazol-2-yl)-4-chlorophenyl)-3-methyl-3′-cyanobiphenyl-4-carboxamide]	31	1.7
COc1cc(-c2ccc(C(F)(F)F)cc2)ccc1C(=O)Nc1ccc(Cl)c(-c2nc3ccccc3[nH]2)c1 [Example 15, N-(3-(1H-benzo[d]imidazol-2-yl)-4-chlorophenyl)-3-methoxy-4′-(trifluoromethyl)biphenyl-4-carboxamide]	> 10000	40
O=C(Nc1ccc(Cl)c(-c2nc3ccccc3[nH]2)c1)c1ccc(-c2ccc(C(F)(F)F)cc2)cc1O [Example 16, N-(3-(1H-benzo[d]imidazol-2-yl)-4-chlorophenyl)-3-hydroxy-4′-(trifluoromethyl)biphenyl-4-carboxamide]	> 10000	> 10000
O=C(Nc1ccc(Cl)c(-c2nc3ccccc3[nH]2)c1)c1ccc(-c2ccc(C(F)(F)F)cc2)cc1[N+](=O)[O-] [Example 19, N-(3-(1H-benzo[d]imidazol-2-yl)-4-chlorophenyl)-3-nitro-4′-(trifluoromethyl)biphenyl-4-carboxamide]	161	23
Cc1cc(-c2ccc(C(F)(F)F)cc2)cc(C)c1C(=O)Nc1ccc(Cl)c(-c2nc3ccccc3[nH]2)c1 [Example 20, N-(3-(1H-benzo[d]imidazol-2-yl)-4-chlorophenyl)-3,5-dimethyl-4′-(trifluoromethyl)biphenyl-4-carboxamide]	> 10000	59
O=c1[nH]c2cc(-c3ccc(C(F)(F)F)cc3)ccc2c(=O)n1-c1ccc(Cl)c(-c2nc3ccccc3[nH]2)c1 [Example 26, 3-(3-(1H-benzo[d]imidazol-2-yl)-4-chlorophenyl)-7-(4-(trifluoromethyl)phenyl)quinazoline-2,4(1H,3H)-dione]	> 10000	> 10000
O=c1c2ccc(-c3ccc(C(F)(F)F)cc3)cc2ncn1-c1ccc(Cl)c(-c2nc3ccccc3[nH]2)c1 [Example 27, 3-(3-(1H-benzo[d]imidazol-2-yl)-4-chlorophenyl)-7-(4-(trifluoromethyl)phenyl)quinazolin-4(3H)-one]	151	57
O=C1c2ccc(-c3ccc(C(F)(F)F)cc3)cc2OCN1c1ccc(Cl)c(-c2nc3ccccc3[nH]2)c1 [Example 28, 3-(3-(1H-benzo[d]imidazol-2-yl)-4-chlorophenyl)-7-(4-(trifluoromethyl)phenyl)-2H-benzo[e][1,3]oxazin-4(3H)-one]	228	59
O=C1c2ccc(-c3ccccc3)cc2CCN1c1ccc(Cl)c(-c2nc3ccccc3[nH]2)c1 [Example 29, 2-(3-(1H-benzo[d]imidazol-2-yl)-4-chlorophenyl)-6-phenyl-3,4-dihydroisoquinolin-1(2H)-one]	> 10000	72
Cc1cc(N2CCOCC2)ccc1C(=O)Nc1ccc(Cl)c(-c2nc3ccccc3[nH]2)c1 [Example 30, N-(3-(1H-benzo[d]imidazol-2-yl)-4-chlorophenyl)-2-methyl-4-morpholinobenzamide]	88	31

Further lines, results first:

IC50 [1] [nM]	IC50 [2] [nM]	SMILES
74	14	Cc1cc(-c2ccccc2)ccc1C(=O)Nc1ccc(Cl)c(-c2nc3ccccc3[nH]2)c1 [Example 2, N-(3-(1H-benzo[d]imidazol-2-yl)-4-chlorophenyl)-3-methylbiphenyl-4-carboxamide]
111	39	COc1ccc(-c2ccc(C(=O)Nc3ccc(Cl)c(-c4nc5ccccc5[nH]4)c3)c(C)c2)cc1 [Example 3, N-(3-(1H-benzo[d]imidazol-2-yl)-4-chlorophenyl)-3-methyl-4′-methoxybiphenyl-4-carboxamide]
86	7.8	Cc1cc(-c2ccc(F)cc2)ccc1C(=O)Nc1ccc(Cl)c(-c2nc3ccccc3[nH]2)c1 [Example 4, N-(3-(1H-benzo[d]imidazol-2-yl)-4-chlorophenyl)-3-methyl-4′-fluorobiphenyl-4-carboxamide]
156	43	CC(=O)c1ccc(-c2ccc(C(=O)Nc3ccc(Cl)c(-c4nc5ccccc5[nH]4)c3)c(C)c2)cc1 [Example 9, N-(3-(1H-benzo[d]imidazol-2-yl)-4-chlorophenyl)-3-methyl-4′-acetylbiphenyl-4-carboxamide]
74	6.3	Cc1cc(-c2cccc(F)c2)ccc1C(=O)Nc1ccc(Cl)c(-c2nc3ccccc3[nH]2)c1 [Example 10, N-(3-(1H-benzo[d]imidazol-2-yl)-4-chlorophenyl)-3-methyl-3′-fluorobiphenyl-4-carboxamide]
153	18	O=C(Nc1ccc(Cl)c(-c2nc3ccccc3[nH]2)c1)c1ccc(-c2ccc(F)cc2)cc1 [Example 12, N-(3-(1H-benzo[d]imidazol-2-yl)-4-chlorophenyl)-4′-fluorobiphenyl-4-carboxamide]
86	14.6	O=C(Nc1ccc(Cl)c(-c2nc3ccccc3[nH]2)c1)c1ccc(-c2cccc(F)c2)cc1 [Example 13, N-(3-(1H-benzo[d]imidazol-2-yl)-4-chlorophenyl)-3′-fluorobiphenyl-4-carboxamide]
81	15	O=C(Nc1ccc(Cl)c(-c2nc3ccccc3[nH]2)c1)c1ccc(-c2ccc(C(F)(F)F)cc2)cc1F [Example 17, N-(3-(1H-benzo[d]imidazol-2-yl)-4-chlorophenyl)-3-fluoro-4′-(trifluoromethyl)biphenyl-4-carboxamide]
163	24	O=C(Nc1ccc(Cl)c(-c2nc3ccccc3[nH]2)c1)c1ccc(-c2ccccc2)cc1 [Example 23, N-(3-(1H-benzo[d]imidazol-2-yl)-4-chlorophenyl) biphenyl-4-carboxamide]
255	62	Cc1cc(-c2ccc(N)cc2)ccc1C(=O)Nc1ccc(Cl)c(-c2nc3ccccc3[nH]2)c1 [Example 24, N-(3-(1H-benzo[d]imidazol-2-yl)-4-chlorophenyl)-3-methyl-4′-aminobiphenyl-4-carboxamide]
